Among the data in US11958861B2, “Spirocyclic lactams as JAK2 V617F inhibitors” (Incyte Corporation, priority 2021, dated 2024) are IC50 values, retold here.

In assay [1] the target is T1, catalytic domain (JH1, amino acids 808-1132) of human JAK2 (Homo sapiens, UniProt O60674).
T1 construct: catalytic domain (JH1, amino acids 808-1132) of human JAK2; His (N); purchased BPS Bioscience 40450; host or cells: baculovirus expression system
As to the kind of experiment: JAK2 HTRF Enzyme Activity Assay. It is filed as biochemical. To be noted: ATP 30 μM, read-out: ENZ 30UMATP. As to the method:
Example D. JAK2 HTRF Enzyme Activity Assay
JAK2 enzyme activity assays utilize catalytic domain (JH1, amino acids 808-1132) of human JAK2 expressed as N-terminal His-tagged protein in a baculovirus expression system (BPS Bioscience, Catalog #40450). The assays was conducted in black 384-well polystyrene plates in a final reaction volume of 20 μL. JAK2 (0.015 nM) was incubated with compounds (100 nL serially diluted in DMSO) in the presence of ATP (30 μM or 1 mM) and 500 nM Biotin-labeled […] (SEQ ID NO.: 1) peptide (BioSource International, custom synthesis) in assay buffer (50 mM Tris, pH=7.5, 10 mM MgCl2, 0.01% Brij-35, 0.1% BSA, 1 mM EGTA, 5% Glycerol and 5 mM DTT) for 60 minutes at 25° C. The reactions were stopped by the addition of 10 μL of detection buffer (50 mM Tris, pH 7.8, 0.5 mg/mL BSA, 150 mM NaCl), supplemented with EDTA, LANCE Eu-W1024 anti-phosphotyrosine (PY20), (PerkinElmer, Catalog #AD0067) and Streptavidin SureLight APC (PerkinElmer Catalog #CR130-100), for a final concentration of 15 mM, 1.5 nM and 75 nM, respectively. HTRF signals were read after 30 minutes incubation at room temperature on a PHERAstar FS plate reader (BMG LABTECH). Data was analyzed with IDBS XLfit and GraphPad Prism 5.0 software using a four parameter dose response curve to determine IC50 for each compound.

Assay [2] addresses T2, pseudo-kinase domain (JH2, amino-acids 536-812) of human Wild Type JAK2 (Homo sapiens, UniProt O60674, F794H/W659A/W777A).
T2 construct: pseudo-kinase domain (JH2, amino-acids 536-812 with 3 surface mutations W659A, W777A, F794H); purchased BPS Bioscience 79463; host or cells: baculovirus expression system
As to the kind of experiment: JAK2 LanthaScreen JH2-WT Binding Assay. Conditions: 1 hour at 25° C. How it is done:
Example B. JAK2 LanthaScreen JH2-WT Binding Assay
(§1) JAK2 JH2-WT binding assay utilizes pseudo-kinase domain (JH2, amino-acids 536-812 with 3 surface mutations W659A, W777A, F794H) of human Wild Type JAK2 expressed as C-terminal His-Avi-tagged, biotinylated protein in a baculovirus expression system (BPS Bioscience, Catalog #79463). The assay was conducted in black 384-well polystyrene plates in a final reaction volume of 20 μL. JAK2 JH2-WT (0.145 nM) was incubated with compounds (100 nL serially diluted in DMSO) in the presence of 50 nM Fluorescent JAK2-JH2 Tracer (MedChem Express Catalog #HY-102055) and 0.25 nM Streptavidin-Tb cryptate (Cisbio Part #610SATLB) in assay buffer (50 mM Tris, pH=7.5, 10 mM MgCl2, 0.01% Brij-35, 0.1% BSA, 1 mM EGTA, 5% Glycerol and 5 mM DTT). Non-specific binding was accessed in the presence of 2 mM ATP. After incubation for 1 hour at 25° C., LanthaScreen signals were read on a PHERAstar FS plate reader (BMG LABTECH). Data was analyzed with IDBS XLfit and GraphPad Prism 5.0 software using a four parameter dose response curve to determine IC50 for each compound.

Assay [3] concerns the target T3, catalytic domain (JH1, amino acids 826-1132) of human JAK2 (Homo sapiens, UniProt O60674).
T3 construct: catalytic domain (JH1, amino acids 826-1132) of human JAK2; purchased Carna Biosciences 08-445-20N; host or cells: baculovirus expression system
The assay is described as follows: JAK2 LanthaScreen JH1 Binding Assay. Conditions: 2 hours at 25° C. How it is done: Example A. JAK2 LanthaScreen JH1 Binding Assay
JAK2 JH1 binding assay utilizes catalytic domain (JH1, amino acids 826-1132) of human JAK2 expressed as N-terminal FLAG-tagged, biotinylated protein in a baculovirus expression system (Carna Biosciences, Product #08-445-20N). The assay was conducted in black 384-well polystyrene plates in a final reaction volume of 20 μL. JAK2 JH1 (1.5 nM) was incubated with compounds (100 nL serially diluted in DMSO) in the presence of 50 nM Fluorescent JAK2-JH1 Tracer and 0.5 nM Streptavidin-Tb cryptate (Cisbio Part #610SATLB) in assay buffer (50 mM Tris, pH=7.5, 10 mM MgCl2, 0.01% Brij-35, 0.1% BSA, 1 mM EGTA, 5% Glycerol and 5 mM DTT). Non-specific binding was accessed in the presence of 2 mM ATP. After incubation for 2 hours at 25° C., LanthaScreen signals were read on a PHERAstar FS plate reader (BMG LABTECH). Data was analyzed with IDBS XLfit and GraphPad Prism 5.0 software using a four parameter dose response curve to determine IC50 for each compound.
Background: TR-FRET usually uses a lanthanide donor and a delayed reading to cut background.

The target of assay [4] is T4, pseudo-kinase domain (JH2, amino-acids 536-812) of human V617F mutant JAK2 (Homo sapiens, UniProt O60674, F794H/V617F/W659A/W777A).
T4 construct: pseudo-kinase domain (JH2, amino-acids 536-812 with 3 surface mutations W659A, W777A, F794H); purchased BPS Bioscience 79498; host or cells: baculovirus expression system
As to the kind of experiment: JAK2 LanthaScreen JH2-V617F Binding Assay. To be noted: 1 hour at 25° C. As to the method: Example C. JAK2 LanthaScreen JH2-V617F Binding Assay
as §1, with “JH2-V617F” for “JH2-WT”, “V617F mutant” for “Wild Type”, “#79498).” for “#79463).”, “JH2-V617F (0.26” for “JH2-WT (0.145”

Where a name gives a salt, the structure may show the parent alone. Bounds are passed on as bounds.

T3 sequence (O60674 826-1132): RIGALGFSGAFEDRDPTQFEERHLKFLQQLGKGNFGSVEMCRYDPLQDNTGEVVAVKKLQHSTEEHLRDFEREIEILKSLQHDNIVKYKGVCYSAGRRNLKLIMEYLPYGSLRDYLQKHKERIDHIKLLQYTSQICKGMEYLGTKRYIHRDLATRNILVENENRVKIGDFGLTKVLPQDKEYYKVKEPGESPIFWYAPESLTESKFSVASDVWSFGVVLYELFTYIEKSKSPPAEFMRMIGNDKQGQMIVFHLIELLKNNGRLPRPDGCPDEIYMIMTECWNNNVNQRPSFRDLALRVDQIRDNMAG
T2 sequence (O60674 536-812 W659A/W777A/F794H): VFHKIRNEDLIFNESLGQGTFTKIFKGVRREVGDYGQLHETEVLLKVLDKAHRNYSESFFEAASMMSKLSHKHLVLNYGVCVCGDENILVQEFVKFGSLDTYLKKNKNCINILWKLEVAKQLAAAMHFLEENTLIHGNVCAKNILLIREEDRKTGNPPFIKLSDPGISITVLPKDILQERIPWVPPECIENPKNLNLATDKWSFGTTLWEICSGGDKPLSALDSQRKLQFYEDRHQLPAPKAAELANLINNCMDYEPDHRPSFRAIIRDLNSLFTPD
T1 sequence (O60674 808-1132): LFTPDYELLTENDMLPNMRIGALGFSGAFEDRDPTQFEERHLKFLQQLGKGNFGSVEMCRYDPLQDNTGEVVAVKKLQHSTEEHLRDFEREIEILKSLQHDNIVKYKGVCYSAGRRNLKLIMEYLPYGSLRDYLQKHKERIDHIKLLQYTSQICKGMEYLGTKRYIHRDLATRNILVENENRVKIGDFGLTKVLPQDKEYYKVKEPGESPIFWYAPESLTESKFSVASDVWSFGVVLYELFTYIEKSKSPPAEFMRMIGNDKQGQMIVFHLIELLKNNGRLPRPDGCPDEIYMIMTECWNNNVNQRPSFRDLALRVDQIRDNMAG
T4 sequence (O60674 536-812 V617F/W659A/W777A/F794H): as the sequence (O60674 536-812 W659A/W777A/F794H) above, with V82F counted along it

As for `CN1C(=O)C2(CCN(CC3(CC#N)CC3)C2)c2c1cnc1[nH]c(-c3cnn(Cc4ccc(C#N)cc4)c3)c(-c3ccc4c(cnn4C)c3)c21` (racemic) [Example 69, 4-((4-(1′-((1-(Cyanomethyl)cyclopropyl)methyl)-6-methyl-1-(1-methyl-1H-indazol-5-yl)-7-oxo-6,7-dihydro-3H-spiro[dipyrrolo[2,3-b:3′,2′-d]pyridine-8,3′-pyrrolidin]-2-yl)-1H-pyrazol-1-yl)methyl)benzonitrile, trifluoroacetate salt], the IC50 in assay [1] is 500 to 1250 nM; in assay [2], no more than 100 nM; in assay [3] it was 500 to 1250 nM; in assay [4], no more than 100 nM.
With `CN1C(=O)C2(CCN(CC3(CC#N)CC4(CCC4)C3)C2)c2c1cnc1[nH]c(-c3cnn(C)c3)c(-c3ccc4c(cnn4C)c3)c21` (racemic) [Example 70, 2-(2-((6-Methyl-1-(1-methyl-1H-indazol-5-yl)-2-(1-methyl-1H-pyrazol-4-yl)-7-oxo-6,7-dihydro-3H-spiro[dipyrrolo[2,3-b:3′,2′-d]pyridine-8,3′-pyrrolidin]-1′-yl)methyl)spiro[3.3]heptan-2-yl)acetonitrile], the IC50 in assay [1] was greater than 2500 nM; in assay [2], no more than 100 nM; in assay [3] it was greater than 2500 nM; in assay [4], no more than 100 nM.
Regarding `CN1C(=O)C2(CCN(S(=O)(=O)C3(CC#N)CC3)C2)c2c1cnc1[nH]c(-c3cnn(C)c3)c(-c3ccc4c(cnn4C)c3)c21` (racemic) [Example 71, 2-(1-((6-Methyl-1-(1-methyl-1H-indazol-5-yl)-2-(1-methyl-1H-pyrazol-4-yl)-7-oxo-6,7-dihydro-3H-spiro[dipyrrolo[2,3-b:3′,2′-d]pyridine-8,3′-pyrrolidin]-1′-yl)sulfonyl)cyclopropyl)acetonitrile, trifluoroacetate salt], the IC50 in assay [1] is 1250 to 2500 nM; in assay [2], no more than 100 nM; in assay [3] it was 1250 to 2500 nM; in assay [4], no more than 100 nM.
Turning to `CON1C(=O)C2(CCN(CC3(CC#N)CC3)C2)c2c1cnc1[nH]c(-c3cnn(C)c3)c(-c3ccc4c(cnn4C)c3)c21` (racemic) [Example 72, 2-(1-((6-Methoxy-1-(1-methyl-1H-indazol-5-yl)-2-(1-methyl-1H-pyrazol-4-yl)-7-oxo-6,7-dihydro-3H-spiro[dipyrrolo[2,3-b:3′,2′-d]pyridine-8,3′-pyrrolidin]-1′-yl)methyl)cyclopropyl)acetonitrile, trifluoroacetate salt], the IC50 in assay [1] was 500 to 1250 nM; in assay [2], 500 to 1250 nM; in assay [3], greater than 2500 nM; in assay [4] it was 1250 to 2500 nM.
As to `CN1C(=O)C2(CCN(C3(C)CCS(=O)(=O)C3)CC2)c2c1cnc1[nH]c(-c3cnn(C)c3)c(-c3ccc4c(cnn4C)c3)c21` (racemic) [Example 78, 6-Methyl-1′-(3-methyl-1,1-dioxidotetrahydrothiophen-3-yl)-1-(1-methyl-1H-indazol-5-yl)-2-(1-methyl-1H-pyrazol-4-yl)-3,6-dihydro-7H-spiro[dipyrrolo[2,3-b:3′-2′-d]pyridine-8,4′-piperidin]-7-one], the IC50 in assay [1] was 500 to 1250 nM; in assay [2], no more than 100 nM; in assay [3], 500 to 1250 nM; in assay [4] it was no more than 100 nM.
As to `COC(=O)NC1CC(CC#N)(N2CCC3(CC2)C(=O)N(C)c2cnc4[nH]c(-c5cnn(C)c5)c(-c5ccccc5)c4c23)C1` (single isomer, unassigned) [Example 27, Methyl (3-(cyanomethyl)-3-(6-methyl-2-(1-methyl-1H-pyrazol-4-yl)-7-oxo-1-phenyl-6,7-dihydro-3H-spiro[dipyrrolo[2,3-b:3′,2′-d]pyridine-8,4′-piperidin]-1′-yl)cyclobutyl)carbamate], the IC50 in assay [1] was 100 to 500 nM; in assay [2], no more than 100 nM; in assay [3] it was 100 to 500 nM; in assay [4], no more than 100 nM.
Turning to `CCS(=O)(=O)N1CCC[C@]2(CC1)C(=O)N(C)c1cnc3[nH]c(-c4cnn(C(C)C)c4)c(-c4ccc5c(cnn5C)c4)c3c12` (single isomer, unassigned) [Example 53a], the IC50 in assay [1] was greater than 2500 nM; in assay [2] it was 100 to 500 nM; in assay [3], greater than 2500 nM; in assay [4], 500 to 1250 nM.
